The record followed here is PubChem BioAssay (NCI).

Some test systems named below: COLO 205 colon; CCRF-CEM leukemia; MDA-MB-435; RPMI-8226 leukemia; MALME-3M melanoma; IGROV1 ovarian; A498 renal; A549 NSCLC; NCI-H226 lung; SF-268 CNS.
Holding throughout (assay): NCI-60 cell line screen, 48 h

Structures are written as SMILES.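 Interpolation was linear, between the two tested concentrations surrounding the appropriate level; five concentrations were tested over 48 hours in 96-well plates. GI50 marks 50% less growth. The concentration for full growth arrest is given as TGI.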

Consider `NCCOc1ccccn1`, for which the TGI with COLO 205 colon, with CCRF-CEM leukemia, with MDA-MB-435, in the assay on RPMI-8226 leukemia, in the assay with MALME-3M melanoma and in the assay with IGROV1 ovarian was > 100 µM throughout. The TGI with A498 renal, with A549 NSCLC, in the assay on NCI-H226 lung and with SF-268 CNS was > 100 µM in each case.

Take `Cc1ccccc1NC(=O)NC(CC(N)=O)c1ccc2c(c1)nc(-c1cccc(Oc3ccc(C(C)(C)C)cc3)c1)n2CCCN1CCCCC1C` (stereo not given): the GI50 with COLO 205 colon was 1.82 µM; with CCRF-CEM leukemia, 3.03 µM; with MDA-MB-435 it was 1.72 µM; in the assay on RPMI-8226 leukemia it was 2.49 µM; in the assay on MALME-3M melanoma, 1.88 µM; with IGROV1 ovarian, 3.25 µM. Also, the GI50 in the assay on A498 renal was 5.91 µM; with A549 NSCLC, 5.54 µM; in the assay on NCI-H226 lung, 7.9 µM; with SF-268 CNS it was 1.88 µM. Also, the TGI worked out at 3.35 µM in the assay on COLO 205 colon; 15.1 µM with CCRF-CEM leukemia; 3.3 µM in the assay with MDA-MB-435; 6.48 µM with RPMI-8226 leukemia; 3.98 µM in the assay with MALME-3M melanoma; 9.82 µM in the assay with IGROV1 ovarian. Moreover, the TGI in the assay on A498 renal is 13.4 µM; with A549 NSCLC, 14.6 µM; with NCI-H226 lung, 25.7 µM; in the assay on SF-268 CNS it was 3.88 µM.

Consider `O=C(CC1C(=O)Nc2ccccc2S1=O)Nc1cccc(Cl)c1` (stereo not given), for which the TGI was > 66.1 µM in the assay on COLO 205 colon; > 57.6 µM in the assay on CCRF-CEM leukemia; > 100 µM with MDA-MB-435; > 31 µM in the assay with RPMI-8226 leukemia; > 84.4 µM in the assay with MALME-3M melanoma; > 67.1 µM in the assay on IGROV1 ovarian. The TGI was 47.3 µM with A498 renal, > 100 µM in the assay on A549 NSCLC, > 76.4 µM in the assay with NCI-H226 lung and > 100 µM in the assay with SF-268 CNS.

In the case of `CCOC(=O)C(=Cc1ccccc1Br)C(=O)OCC`, the TGI in the assay on COLO 205 colon was 6.77 µM; with CCRF-CEM leukemia it was > 100 µM; in the assay with MDA-MB-435 it was 5.16 µM; in the assay with RPMI-8226 leukemia it was > 100 µM; in the assay with MALME-3M melanoma, 8.26 µM; with IGROV1 ovarian, 4.62 µM. Also, the TGI in the assay on A498 renal was 5.07 µM; with A549 NSCLC it was > 100 µM; in the assay on NCI-H226 lung it was 8.99 µM; with SF-268 CNS, 29.1 µM.

Regarding `COc1ccc(C2CC(c3cc(OC)c(OC)c(OC)c3)=NN2)cc1` (stereo not given), the GI50 was 4 µM in the assay on COLO 205 colon; 6.34 µM in the assay on CCRF-CEM leukemia; 2.96 µM in the assay with MDA-MB-435; 3.23 µM with RPMI-8226 leukemia; 24.7 µM in the assay with MALME-3M melanoma; 5.98 µM with IGROV1 ovarian. Also, the GI50 with A498 renal was 5.99 µM; in the assay on A549 NSCLC, 6.23 µM; in the assay on NCI-H226 lung, 23.8 µM; in the assay on SF-268 CNS it was 20 µM. Besides, the TGI in the assay on COLO 205 colon was 31 µM; in the assay with CCRF-CEM leukemia, > 100 µM; in the assay on MDA-MB-435, 20.9 µM; in the assay with RPMI-8226 leukemia it was 18.6 µM; in the assay on MALME-3M melanoma, > 100 µM; with IGROV1 ovarian, > 100 µM. The TGI with A498 renal is 47.6 µM; in the assay on A549 NSCLC, > 100 µM; in the assay with NCI-H226 lung, > 100 µM; in the assay on SF-268 CNS, > 100 µM.

Turning to `COc1cc(/C=C/C(=O)c2ccc(Nc3nc(Nc4ccc(F)cc4)nc(Nc4ccc(F)cc4)n3)cc2)cc(OC)c1OC`, the GI50 in the assay on COLO 205 colon was 3.5 µM; in the assay on CCRF-CEM leukemia, 2.35 µM; in the assay with MDA-MB-435, 17.1 µM; in the assay with RPMI-8226 leukemia, 1.81 µM; in the assay with MALME-3M melanoma, 17.1 µM; with IGROV1 ovarian, 3.59 µM. Further, the GI50 is 15.7 µM with A498 renal, 8.27 µM in the assay on A549 NSCLC, 3.8 µM in the assay with NCI-H226 lung and 41.2 µM in the assay on SF-268 CNS. The TGI was > 100 µM in the assay with COLO 205 colon; > 100 µM in the assay with CCRF-CEM leukemia; > 100 µM in the assay on MDA-MB-435; 35.2 µM in the assay with RPMI-8226 leukemia; 82.4 µM with MALME-3M melanoma; > 100 µM in the assay with IGROV1 ovarian. Further, the TGI is 49 µM with A498 renal, > 100 µM in the assay on A549 NSCLC, 29.3 µM in the assay on NCI-H226 lung and > 100 µM in the assay with SF-268 CNS.

With `CC(=O)Nc1ccc(C(=O)N[C@@H]2C(=O)N3[C@@H]2SC(C)(C)[C@@H]3C(=O)O)cn1`, the TGI in the assay with COLO 205 colon, in the assay with CCRF-CEM leukemia, with MDA-MB-435, in the assay with RPMI-8226 leukemia, in the assay with MALME-3M melanoma and in the assay on IGROV1 ovarian was > 100 µM in each case. The TGI in the assay on A498 renal, in the assay with A549 NSCLC, in the assay on NCI-H226 lung and with SF-268 CNS was > 100 µM in each case.
